Consider two compounds from PubChem BioAssay (NCI).

Among the test systems are SNB-19 CNS; HOP-92 NSCLC; SF-295 CNS; BT-549 breast; RPMI-8226 leukemia; UO-31 renal; M14 melanoma; HT29 colon; EKVX NSCLC; T-47D breast; SW-620 colon; TK-10 renal; OVCAR-4 ovarian; U251 CNS; SK-MEL-28 melanoma; IGROV1 ovarian; DU-145 prostate; LOX IMVI melanoma; SK-MEL-2 melanoma; UACC-62 melanoma.
Holding throughout (test): DTP human tumour cell line panel, 48 h

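Growth conditions: 96-well plates. Treatment: test compound, 48 hours, 5 concentrations. Analysis: linear interpolation between bracketing concentrations; unreached endpoints set to highest concentration. Definition used: TGI = concentration required for complete inhibition of growth.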 Some results are limits rather than exact numbers.

As to `Cc1cc(C)c(/C=C(\C(=C/c2c(C)cc(C)cc2C)[N+](=O)[O-])[N+](=O)[O-])c(C)c1`, the TGI is over 100 µM in the experiment with SNB-19 CNS; over 100 µM in the experiment on HOP-92 NSCLC; over 100 µM in the experiment with SF-295 CNS; over 100 µM in the experiment on BT-549 breast; 70.9 µM in the experiment on RPMI-8226 leukemia; over 100 µM with UO-31 renal. Moreover, the TGI in the experiment with M14 melanoma, with HT29 colon, with EKVX NSCLC, in the experiment on T-47D breast, with SW-620 colon and in the experiment with TK-10 renal was over 100 µM each time. Moreover, the TGI in the experiment on OVCAR-4 ovarian, in the experiment with U251 CNS, with SK-MEL-28 melanoma, with IGROV1 ovarian, in the experiment with DU-145 prostate and with LOX IMVI melanoma was over 100 µM throughout. Further, the TGI in the experiment on SK-MEL-2 melanoma and in the experiment on UACC-62 melanoma was over 100 µM throughout.
`O=S1(=O)C[C@@H](NCc2ccccc2)[C@H](NCc2ccccc2)C1`: the TGI in the experiment with SNB-19 CNS, in the experiment with HOP-92 NSCLC, in the experiment on SF-295 CNS, in the experiment with BT-549 breast, in the experiment on RPMI-8226 leukemia and in the experiment on UO-31 renal was over 100 µM in each case. In addition, the TGI with M14 melanoma, with HT29 colon, in the experiment with EKVX NSCLC, in the experiment on T-47D breast, with SW-620 colon and in the experiment with TK-10 renal was over 100 µM throughout. Further, the TGI with OVCAR-4 ovarian, with U251 CNS, in the experiment on SK-MEL-28 melanoma, in the experiment with IGROV1 ovarian, with DU-145 prostate and with LOX IMVI melanoma was over 100 µM throughout. Besides, the TGI in the experiment with SK-MEL-2 melanoma and with UACC-62 melanoma was over 100 µM in each case.
